Measured values as given in US8436004B2, “Bicycloaniline derivative” (MSD K.K., priority 2007, dated 2013).

Test system: Human colon cancer cells WiDr
Assay: Tumor growth inhibitory effect, WiDr subcutaneous xenograft in nude rats
Type: in vivo, F344/N Jcl-rnu nude rats
Description: Pharmacological Test 4 (Tumor Growth Inhibitory Effect)
Human colon cancer cells WiDr (obtained from ATCC) were implanted into the subcutaneous area of the back of F344/N Jcl-rnu nude rats. 12 days after the implantation, 5 mg/kg of gemcitabine (Gemzar, from Eli Lily) was intravenously administered to them; and after 24 hours, a test compound suspended in a solvent (0.5% methyl cellulose) was orally administered thereto. This was repeated once a week for 3 weeks. The tumor volume (0.5×major diameter×(minor diameter)^2) was measured on days 0, 3, 6, 10, 13, 17, 20, 24 and 27 (the first gemcitabine administration is on day 0). The relative tumor volume was calculated, based on the tumor volume on day 0, as 1. The tumor growth rate (% T/C) was obtained according to the formulae mentioned below.
In case where the tumor volume change from day 0 in the test compound administration group is more than 0 (>0): % T/C=(tumor volume change in the test compound group on days 3, 6, 10, 13, 17, 20, 24 and 27/tumor volume change in the control group on days 3, 6, 10, 13, 17, 20, 24 and 27)×100. In case where the tumor volume change from day 0 in the test compound administration group is less than 0 (<0): % T/C=(tumor volume change in the test compound group on days 3, 6, 10, 13, 17, 20, 24 and 27/tumor volume […] in the test compound group on day 0)×100.
Gemcitabine was administered on days 0, 7 and 14. The compound of Example 1 was administered on days 1, 8 and 15.

With `Nc1ccn([C@@H]2O[C@H](CO)[C@@H](O)C2(F)F)c(=O)n1` [Gemcitabine, gemcitabine] the “% T/C day 3” value (day 3, gemcitabine 5 mg/kg i.v. days 0, 7, 14, Example 1 15 mg/kg oral days 1, 8, 15, n=5) was 62%, the “% T/C day 6” value (day 6, gemcitabine 5 mg/kg i.v. days 0, 7, 14, Example 1 15 mg/kg oral days 1, 8, 15, n=5) was 67% and the “% T/C day 10” value (day 10, gemcitabine 5 mg/kg i.v. days 0, 7, 14, Example 1 15 mg/kg oral days 1, 8, 15, n=5) was 66%. The “% T/C day 13” value (day 13, gemcitabine 5 mg/kg i.v. days 0, 7, 14, Example 1 15 mg/kg oral days 1, 8, 15, n=5) was 64%, the “% T/C day 17” value (day 17, gemcitabine 5 mg/kg i.v. days 0, 7, 14, Example 1 15 mg/kg oral days 1, 8, 15, n=5) was 57% and the “% T/C day 20” value (day 20, gemcitabine 5 mg/kg i.v. days 0, 7, 14, Example 1 15 mg/kg oral days 1, 8, 15, n=5) was 49%. For the same compound, the “% T/C day 24” value (day 24, gemcitabine 5 mg/kg i.v. days 0, 7, 14, Example 1 15 mg/kg oral days 1, 8, 15, n=5) was 52%, the “% T/C day 27” value (day 27, gemcitabine 5 mg/kg i.v. days 0, 7, 14, Example 1 15 mg/kg oral days 1, 8, 15, n=5) was 54% and the “tumor growth rate, result in words” value (summary of Table 5) was “reduced the tumor growth rate”.
